Measured values reported in article PMC11369877 (Therapeutic Advances in Medical Oncology, 2024).

Legend:
[1] = human, in vivo
Asian patients = conditions: palbociclib plus letrozole, PALOMA-4 trial; cited from earlier work

| geometric mean Rac,AUC [1] | SMILES | neutropenia, grade 3 (Asian patients) [%] | neutropenia, grade 4 (Asian patients) [%] |
| --- | --- | --- | --- |
| 6.25–6.41 | N#Cc1ccc(C(c2ccc(C#N)cc2)n2cncn2)cc1 [letrozole] |  |  |
| 3.66–4.15 | CC(C)(C#N)c1cc(Cn2cncn2)cc(C(C)(C)C#N)c1 [anastrozole] |  |  |
|  | CC(=O)c1c(C)c2cnc(Nc3ccc(N4CCNCC4)cn3)nc2n(C2CCCC2)c1=O [palbociclib] | 72 | 12.5 |
